Measurements as given in BindingDB's records for patent US20240368194 (Shanghai Leadingtac Pharmaceutical, 2024).

The molecules below were run against T1, Interleukin-1 receptor-associated kinase 4 (Homo sapiens, UniProt Q9NWZ3) (assay: 1RAK4 Kinase Activity Assay).
T1 sequence (Q9NWZ3 whole entry): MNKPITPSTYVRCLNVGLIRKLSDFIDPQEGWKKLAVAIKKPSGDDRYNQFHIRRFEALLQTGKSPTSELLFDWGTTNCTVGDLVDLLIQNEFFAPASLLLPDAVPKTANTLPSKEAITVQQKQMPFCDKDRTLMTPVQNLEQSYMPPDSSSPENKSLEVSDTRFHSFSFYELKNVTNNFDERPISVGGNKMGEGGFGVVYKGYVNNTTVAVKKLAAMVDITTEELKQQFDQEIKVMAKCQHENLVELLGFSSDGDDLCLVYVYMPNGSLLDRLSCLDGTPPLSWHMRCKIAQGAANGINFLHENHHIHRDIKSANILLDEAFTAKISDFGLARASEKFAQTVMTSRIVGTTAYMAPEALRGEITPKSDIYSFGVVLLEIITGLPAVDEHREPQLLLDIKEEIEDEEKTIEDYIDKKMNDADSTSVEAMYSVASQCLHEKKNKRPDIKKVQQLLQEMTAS
Procedure: Then 2.5 nM 1RAK4 kinase (Carna), 1 μM biotinylated polypeptide substrate (Cisbio) and 7 μM adenosine triphosphate (Sigma-Aldrich) were sequentially added, and the mixtures were incubated at 37° C. for 120 min. Subsequently, an anti-phosphoserine/threonine antibody (Cisbio) conjugated with a europium element compound and conjugated modified XL665 streptavidin (Cisbio) were added to the reaction systems to stop the reactions. After 1 h of incubation at room temperature, the fluorescence intensity of each well was measured at the excitation wavelength of 337 nm and the emission wavelengths of 620 nm and 665 nm with a microplate reader EnVision (PerkinElmer) in the HTRF mode, and Ratio values were calculated using the formula Ratio=(665 nm/620 nm)×[…]. The inhibition rate of the compound at each concentration was calculated by comparing the fluorescence intensity ratio with that of the control group.

SMILES | IC50 [µM]
O=C1CCC(c2ccc(C(=O)N3CCC4(CCC(CN5CCC(n6cc(NC(=O)c7cnn8ccc(N9CCOCC9)nc78)c(C(F)F)n6)CC5)CC4)CC3)cc2)C(=O)N1 (stereo not given) [US20240368194, Example 26] | 0.0143
CN(CCC1CCN(C(=O)c2ccc(Cl)c(N3CCC(=O)NC3=O)c2)CC1)C[C@H]1CC[C@H](n2cc(NC(=O)c3cnn4ccc(N5C[C@H]6C[C@@H]5CO6)nc34)c(C(F)F)n2)CC1 [US20240368194, Example 11] | 0.0185
CN(CCC1CCN(C(=O)c2ccc(OC(F)(F)F)c(N3CCC(=O)NC3=O)c2)CC1)C[C@H]1CC[C@H](n2cc(NC(=O)c3cnn4ccc(N5C[C@H]6C[C@@H]5CO6)nc34)c(C(F)F)n2)CC1 [US20240368194, Example 33] | 0.0239
Cc1nn([C@H]2CC[C@H](CN3CCC4(CC3)CCN(C(=O)c3ccc(Cl)c(N5CCC(=O)NC5=O)c3)CC4)CC2)cc1NC(=O)c1cnn2ccc(N3C[C@H]4C[C@@H]3CO4)nc12 [US20240368194, Example 7] | 0.313
O=C1CCN(c2cc(C(=O)N3CCC4(CCN(C[C@H]5CC[C@H](n6cc(NC(=O)c7cnn8ccc(N9C[C@H]%10C[C@@H]9CO%10)nc78)c(Cl)n6)CC5)CC4)CC3)ccc2Cl)C(=O)N1 [US20240368194, Example 5] | 0.36

Other lines, results leading:

IC50 [µM] | SMILES
0.0255 | CN1CCN(c2ccn3ncc(C(=O)Nc4cn([C@H]5CC[C@H](CN(C)CCC6CCN(C(=O)c7ccc(F)c(N8CCC(=O)NC8=O)c7)CC6)CC5)nc4C(F)F)c3n2)CC1 [US20240368194, Example 41]
0.02 | O=C1CCN(c2cc(C#CCOC3CCN(C[C@H]4CC[C@H](n5cc(NC(=O)c6cnn7ccc(N8CCOCC8)nc67)c(C(F)F)n5)CC4)CC3)ccc2Cl)C(=O)N1 [US20240368194, Example 38]
0.0521 | CN(CCC1CCN(C(=O)c2ccc(Cl)c(N3CCC(=O)NC3=O)c2)CC1)C[C@]1(O)CC[C@@H](n2cc(NC(=O)c3cnn4ccc(N5C[C@H]6C[C@@H]5CO6)nc34)c(C(F)F)n2)CC1 [US20240368194, Example 65]
0.278 | CN(CC[C@H]1CC[C@H](n2cc(NC(=O)c3cnn4ccc(N5C[C@H]6C[C@@H]5CO6)nc34)c(C(F)F)n2)CC1)CC1CCN(C(=O)c2ccc(Cl)c(N3CCC(=O)NC3=O)c2)CC1 [US20240368194, Example 46]
0.00871 | COc1ccc(C(=O)N2CCC3(CCC(N(C)C[C@H]4CC[C@H](n5cc(NC(=O)c6cnn7ccc(N8CCOCC8)nc67)c(C(F)F)n5)CC4)CC3)CC2)cc1N1CCC(=O)NC1=O [US20240368194, Example 59]
